Assay results reported in ChEMBL document CHEMBL2163308, “Small molecule activators of proteasome-related HslV peptidase” (Bioorg Med Chem Lett, 2012).

Legend:
Escherichia coli = test: Activation of recombinant Escherichia coli HslV expressed in Escherichia coli BL21( DE3) cells using Z-GGL-AMC as substrate by fluorescence analysis
[1] = Activation of recombinant Escherichia coli HslU C-tail expressed in Escherichia coli BL21( DE3) cells using Z-GGL-AMC as substrate by fluorescence analysis

Row | Compound | ED50 (Escherichia coli) | ED50 [1]
1 | O=C(Cn1c(-c2ccccn2)nc2ccccc21)c1ccc([N+](=O)[O-])cc1 | 600 nM | 2600 nM
2 | O=C(N/N=C/c1cc(=O)c2ccccc2o1)c1ccccc1 | 1300 nM | 2600 nM
3 | O=C(Cn1c(-c2ccccn2)nc2ccccc21)c1ccc(O)c(O)c1 | 600 nM | 2600 nM
4 | O=c1c2ccccc2nc(-c2ccc([N+](=O)[O-])cc2)n1/N=C/c1c(O)ccc2ccccc12 | 900 nM | 2600 nM
